Results as given in patent US9179678B2, “Substituted [1,2,4]triazoles and substituted tetrazoles as herbicides” (SYNGENTA LIMITED, priority 2012, dated 2015).

The compounds below were run on Alopecurus myosuroides (ALOMY) (assay: Post-emergence glasshouse herbicide test). Conditions: POST Application, 1000 g/h, after 13 days.
Format: in vivo
Description: (§1) Seeds of a variety of test species are sown in standard soil in pots (Alopecurus myosuroides (ALOMY), Setaria faberi (SETFA), Echinochloa crus-galli (ECHCG), Solanum nigrum (SOLNI), Amaranthus retoflexus (AMARE), Ipomoea hederacea (IPOHE)). After cultivation for one day (pre-emergence) or after 8 days cultivation (post-emergence) under controlled conditions in a glasshouse (at 24/16° C., day/night; 14 hours light; 65% humidity), the plants are sprayed with an aqueous spray solution derived from the formulation of the technical active ingredient in acetone/water (50:50) solution containing 0.5% Tween 20 (polyoxyethelyene sorbitan monolaurate, CAS RN 9005-64-5). Compounds ae applied at 1000 g/h. The test plants are then grown in a glasshouse under controlled conditions in a glasshouse (at 24/16° C., day/night; 14 hours light; 65% humidity) and watered twice daily. After 13 days for pre and post-emergence, the test is evaluated for the percentage damage caused to the plant. The biological activities are shown in the following table on a five point scale (5=80-100%; 4=60-79%; 3=40-59%; 2=20-39%; 1=0-19%).

Row | SMILES | percentage damage caused to the plant, ALOMY
1 | Cn1nnnc1NC(=O)c1nc2ccccc2n(-c2ccc(Br)cc2)c1=O [Compound 5.032] | 2 (2=20-39%)
2 | Cn1nnnc1NC(=O)c1nc2ccccc2n(-c2cc(Cl)cc(Cl)c2)c1=O [Compound 5.017] | 5 (5=80-100%)
3 | Cn1nnnc1NC(=O)c1nc2ccccc2n(-c2cccc(Cl)c2)c1=O [Compound 5.016] | 5 (5=80-100%)
4 | Cn1nnnc1NC(=O)c1nc2ccccc2n(-c2ccc([N+](=O)[O-])cc2)c1=O [Compound 5.022] | 2 (2=20-39%)
5 | Cn1nnnc1NC(=O)c1nc2ccccc2n(-c2ccc(Cl)c(C(F)(F)F)c2)c1=O [Compound 5.037] | 4 (4=60-79%)

These compounds were tested on Amaranthus retoflexus (AMARE) (assay: Post-emergence glasshouse herbicide test). Conditions: POST Application, 1000 g/h, after 13 days.
Format: in vivo
Description: as §1

Row | SMILES | percentage damage caused to the plant, AMARE
6 | Cn1nnnc1NC(=O)c1nc2ccccc2n(-c2ccc(Br)cc2)c1=O [Compound 5.032] | 5 (5=80-100%)
7 | Cn1nnnc1NC(=O)c1nc2ccccc2n(-c2cc(Cl)cc(Cl)c2)c1=O [Compound 5.017] | 5 (5=80-100%)
8 | Cn1nnnc1NC(=O)c1nc2ccccc2n(-c2cccc(Cl)c2)c1=O [Compound 5.016] | 5 (5=80-100%)
9 | Cn1nnnc1NC(=O)c1nc2ccccc2n(-c2ccc([N+](=O)[O-])cc2)c1=O [Compound 5.022] | 5 (5=80-100%)
10 | Cn1nnnc1NC(=O)c1nc2ccccc2n(-c2ccc(Cl)c(C(F)(F)F)c2)c1=O [Compound 5.037] | 5 (5=80-100%)

What follows are compounds tested on Echinochloa crus-galli (ECHCG) (assay: Post-emergence glasshouse herbicide test). Conditions: POST Application, 1000 g/h, after 13 days.
Format: in vivo
Description: as §1

Row | SMILES | percentage damage caused to the plant, ECHCG
11 | Cn1nnnc1NC(=O)c1nc2ccccc2n(-c2ccc(Br)cc2)c1=O [Compound 5.032] | 3 (3=40-59%)
12 | Cn1nnnc1NC(=O)c1nc2ccccc2n(-c2cc(Cl)cc(Cl)c2)c1=O [Compound 5.017] | 2 (2=20-39%)
13 | Cn1nnnc1NC(=O)c1nc2ccccc2n(-c2cccc(Cl)c2)c1=O [Compound 5.016] | 5 (5=80-100%)
14 | Cn1nnnc1NC(=O)c1nc2ccccc2n(-c2ccc([N+](=O)[O-])cc2)c1=O [Compound 5.022] | 4 (4=60-79%)
15 | Cn1nnnc1NC(=O)c1nc2ccccc2n(-c2ccc(Cl)c(C(F)(F)F)c2)c1=O [Compound 5.037] | 5 (5=80-100%)

Each compound was assayed on Ipomoea hederacea (IPOHE) (assay: Post-emergence glasshouse herbicide test). Conditions: POST Application, 1000 g/h, after 13 days.
Format: in vivo
Description: as §1

Row | SMILES | percentage damage caused to the plant, IPOHE
16 | Cn1nnnc1NC(=O)c1nc2ccccc2n(-c2ccc(Br)cc2)c1=O [Compound 5.032] | 5 (5=80-100%)
17 | Cn1nnnc1NC(=O)c1nc2ccccc2n(-c2cc(Cl)cc(Cl)c2)c1=O [Compound 5.017] | 4 (4=60-79%)
18 | Cn1nnnc1NC(=O)c1nc2ccccc2n(-c2cccc(Cl)c2)c1=O [Compound 5.016] | 5 (5=80-100%)
19 | Cn1nnnc1NC(=O)c1nc2ccccc2n(-c2ccc([N+](=O)[O-])cc2)c1=O [Compound 5.022] | 5 (5=80-100%)
20 | Cn1nnnc1NC(=O)c1nc2ccccc2n(-c2ccc(Cl)c(C(F)(F)F)c2)c1=O [Compound 5.037] | 5 (5=80-100%)

The compounds below were run on Solanum nigrum (SOLNI) (assay: Post-emergence glasshouse herbicide test). Conditions: POST Application, 1000 g/h, after 13 days.
Format: in vivo
Description: as §1

Row | SMILES | percentage damage caused to the plant, SOLNI
21 | Cn1nnnc1NC(=O)c1nc2ccccc2n(-c2ccc(Br)cc2)c1=O [Compound 5.032] | 5 (5=80-100%)
22 | Cn1nnnc1NC(=O)c1nc2ccccc2n(-c2cc(Cl)cc(Cl)c2)c1=O [Compound 5.017] | 5 (5=80-100%)
23 | Cn1nnnc1NC(=O)c1nc2ccccc2n(-c2cccc(Cl)c2)c1=O [Compound 5.016] | 5 (5=80-100%)
24 | Cn1nnnc1NC(=O)c1nc2ccccc2n(-c2ccc([N+](=O)[O-])cc2)c1=O [Compound 5.022] | 5 (5=80-100%)
25 | Cn1nnnc1NC(=O)c1nc2ccccc2n(-c2ccc(Cl)c(C(F)(F)F)c2)c1=O [Compound 5.037] | 5 (5=80-100%)

The compounds below were run on Setaria faberi (SETFA) (assay: Post-emergence glasshouse herbicide test). Conditions: POST Application, 1000 g/h, after 13 days.
Format: in vivo
Description: as §1, with “Compounds ae applied at 1000 g/h.” left out

Row | SMILES | percentage damage caused to the plant, SETFA
26 | Cn1nnnc1NC(=O)c1nc2ccccc2n(-c2ccc(Br)cc2)c1=O [Compound 5.032] | 5 (5=80-100%)
27 | Cn1nnnc1NC(=O)c1nc2ccccc2n(-c2cc(Cl)cc(Cl)c2)c1=O [Compound 5.017] | 5 (5=80-100%)
28 | Cn1nnnc1NC(=O)c1nc2ccccc2n(-c2cccc(Cl)c2)c1=O [Compound 5.016] | 5 (5=80-100%)
29 | Cn1nnnc1NC(=O)c1nc2ccccc2n(-c2ccc([N+](=O)[O-])cc2)c1=O [Compound 5.022] | 4 (4=60-79%)
30 | Cn1nnnc1NC(=O)c1nc2ccccc2n(-c2ccc(Cl)c(C(F)(F)F)c2)c1=O [Compound 5.037] | 5 (5=80-100%)

These compounds were tested on Alopecurus myosuroides (ALOMY) (assay: Pre-emergence glasshouse herbicide test). Conditions: PRE Application, 1000 g/h, after 13 days.
Format: in vivo
Description: as §1

Row | SMILES | percentage damage caused to the plant, ALOMY
31 | Cn1nnnc1NC(=O)c1nc2ccccc2n(-c2ccc(Br)cc2)c1=O [Compound 5.032] | 4 (4=60-79%)
32 | Cn1nnnc1NC(=O)c1nc2ccccc2n(-c2cc(Cl)cc(Cl)c2)c1=O [Compound 5.017] | 4 (4=60-79%)
33 | Cn1nnnc1NC(=O)c1nc2ccccc2n(-c2cccc(Cl)c2)c1=O [Compound 5.016] | 4 (4=60-79%)
34 | Cn1nnnc1NC(=O)c1nc2ccccc2n(-c2ccc([N+](=O)[O-])cc2)c1=O [Compound 5.022] | 3 (3=40-59%)
35 | Cn1nnnc1NC(=O)c1nc2ccccc2n(-c2ccc(Cl)c(C(F)(F)F)c2)c1=O [Compound 5.037] | 4 (4=60-79%)

What follows are compounds tested on Amaranthus retoflexus (AMARE) (assay: Pre-emergence glasshouse herbicide test). Conditions: PRE Application, 1000 g/h, after 13 days.
Format: in vivo
Description: as §1

Row | SMILES | percentage damage caused to the plant, AMARE
36 | Cn1nnnc1NC(=O)c1nc2ccccc2n(-c2ccc(Br)cc2)c1=O [Compound 5.032] | 5 (5=80-100%)
37 | Cn1nnnc1NC(=O)c1nc2ccccc2n(-c2cc(Cl)cc(Cl)c2)c1=O [Compound 5.017] | 5 (5=80-100%)
38 | Cn1nnnc1NC(=O)c1nc2ccccc2n(-c2cccc(Cl)c2)c1=O [Compound 5.016] | 5 (5=80-100%)
39 | Cn1nnnc1NC(=O)c1nc2ccccc2n(-c2ccc([N+](=O)[O-])cc2)c1=O [Compound 5.022] | 5 (5=80-100%)
40 | Cn1nnnc1NC(=O)c1nc2ccccc2n(-c2ccc(Cl)c(C(F)(F)F)c2)c1=O [Compound 5.037] | 5 (5=80-100%)

What follows are compounds tested on Echinochloa crus-galli (ECHCG) (assay: Pre-emergence glasshouse herbicide test). Conditions: PRE Application, 1000 g/h, after 13 days.
Format: in vivo
Description: as §1

Row | SMILES | percentage damage caused to the plant, ECHCG
41 | Cn1nnnc1NC(=O)c1nc2ccccc2n(-c2ccc(Br)cc2)c1=O [Compound 5.032] | 4 (4=60-79%)
42 | Cn1nnnc1NC(=O)c1nc2ccccc2n(-c2cc(Cl)cc(Cl)c2)c1=O [Compound 5.017] | 1 (1=0-19%)
43 | Cn1nnnc1NC(=O)c1nc2ccccc2n(-c2cccc(Cl)c2)c1=O [Compound 5.016] | 5 (5=80-100%)
44 | Cn1nnnc1NC(=O)c1nc2ccccc2n(-c2ccc([N+](=O)[O-])cc2)c1=O [Compound 5.022] | 5 (5=80-100%)
45 | Cn1nnnc1NC(=O)c1nc2ccccc2n(-c2ccc(Cl)c(C(F)(F)F)c2)c1=O [Compound 5.037] | 2 (2=20-39%)

These compounds were tested on Ipomoea hederacea (IPOHE) (assay: Pre-emergence glasshouse herbicide test). Conditions: PRE Application, 1000 g/h, after 13 days.
Format: in vivo
Description: as §1

Row | SMILES | percentage damage caused to the plant, IPOHE
46 | Cn1nnnc1NC(=O)c1nc2ccccc2n(-c2ccc(Br)cc2)c1=O [Compound 5.032] | 5 (5=80-100%)
47 | Cn1nnnc1NC(=O)c1nc2ccccc2n(-c2cc(Cl)cc(Cl)c2)c1=O [Compound 5.017] | 4 (4=60-79%)
48 | Cn1nnnc1NC(=O)c1nc2ccccc2n(-c2cccc(Cl)c2)c1=O [Compound 5.016] | 5 (5=80-100%)
49 | Cn1nnnc1NC(=O)c1nc2ccccc2n(-c2ccc([N+](=O)[O-])cc2)c1=O [Compound 5.022] | 4 (4=60-79%)
50 | Cn1nnnc1NC(=O)c1nc2ccccc2n(-c2ccc(Cl)c(C(F)(F)F)c2)c1=O [Compound 5.037] | 5 (5=80-100%)

The compounds below were run on Setaria faberi (SETFA) (assay: Pre-emergence glasshouse herbicide test). Conditions: PRE Application, 1000 g/h, after 13 days.
Format: in vivo
Description: as §1

Row | SMILES | percentage damage caused to the plant, SETFA
51 | Cn1nnnc1NC(=O)c1nc2ccccc2n(-c2ccc(Br)cc2)c1=O [Compound 5.032] | 5 (5=80-100%)
52 | Cn1nnnc1NC(=O)c1nc2ccccc2n(-c2cc(Cl)cc(Cl)c2)c1=O [Compound 5.017] | 5 (5=80-100%)
53 | Cn1nnnc1NC(=O)c1nc2ccccc2n(-c2cccc(Cl)c2)c1=O [Compound 5.016] | 5 (5=80-100%)
54 | Cn1nnnc1NC(=O)c1nc2ccccc2n(-c2ccc([N+](=O)[O-])cc2)c1=O [Compound 5.022] | 5 (5=80-100%)
55 | Cn1nnnc1NC(=O)c1nc2ccccc2n(-c2ccc(Cl)c(C(F)(F)F)c2)c1=O [Compound 5.037] | 5 (5=80-100%)

What follows are compounds tested on Solanum nigrum (SOLNI) (assay: Pre-emergence glasshouse herbicide test). Conditions: PRE Application, 1000 g/h, after 13 days.
Format: in vivo
Description: as §1

Row | SMILES | percentage damage caused to the plant, SOLNI
56 | Cn1nnnc1NC(=O)c1nc2ccccc2n(-c2ccc(Br)cc2)c1=O [Compound 5.032] | 5 (5=80-100%)
57 | Cn1nnnc1NC(=O)c1nc2ccccc2n(-c2cc(Cl)cc(Cl)c2)c1=O [Compound 5.017] | 5 (5=80-100%)
58 | Cn1nnnc1NC(=O)c1nc2ccccc2n(-c2cccc(Cl)c2)c1=O [Compound 5.016] | 5 (5=80-100%)
59 | Cn1nnnc1NC(=O)c1nc2ccccc2n(-c2ccc([N+](=O)[O-])cc2)c1=O [Compound 5.022] | 5 (5=80-100%)
60 | Cn1nnnc1NC(=O)c1nc2ccccc2n(-c2ccc(Cl)c(C(F)(F)F)c2)c1=O [Compound 5.037] | 5 (5=80-100%)
